The values below come from US8871789B2, “Method of preventing or treating viral infection” (The United States of America, as represented by the …, priority 2010, dated 2014).

Molecules are shown by their SMILES.

The first test relates to HSV-1.
Assay: not given
To be noted: 100 mM ACV or 50 mM ML324, 48 hours. In kind it is cell-based, mouse.
Turning to `Nc1nc2c(ncn2COCCO)c(=O)[nH]1` [ACV, acyclovir, reference compound], the “isolated UL29+ neurons relative to DMSO” value was “reduced number”.

Another test concerns the target T1, JMJD2E (Homo sapiens, UniProt B2RXH2).
T1 sequence (B2RXH2 1-506): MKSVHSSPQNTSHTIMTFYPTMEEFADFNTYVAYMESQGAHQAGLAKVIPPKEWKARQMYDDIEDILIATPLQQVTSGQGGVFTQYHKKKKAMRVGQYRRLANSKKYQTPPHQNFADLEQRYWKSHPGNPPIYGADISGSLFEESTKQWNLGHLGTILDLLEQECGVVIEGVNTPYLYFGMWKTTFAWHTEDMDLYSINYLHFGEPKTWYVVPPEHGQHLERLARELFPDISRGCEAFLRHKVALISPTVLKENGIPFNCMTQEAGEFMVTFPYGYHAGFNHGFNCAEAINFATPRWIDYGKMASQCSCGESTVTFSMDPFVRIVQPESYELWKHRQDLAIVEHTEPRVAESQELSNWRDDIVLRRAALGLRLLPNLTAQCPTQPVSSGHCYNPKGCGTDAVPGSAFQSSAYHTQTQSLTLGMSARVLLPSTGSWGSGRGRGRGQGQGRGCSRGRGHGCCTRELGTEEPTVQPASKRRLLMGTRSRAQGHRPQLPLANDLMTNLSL
Briefly: AlphaLISA assay, JMJD2E histone demethylase inhibition. In kind it is biochemical.
Details: not given
On the technique in general: In Alpha technology, singlet oxygen from a donor bead excites a nearby acceptor bead.
For `CN1CCN(c2cnc3c(O)ccc(C(=O)O)c3c2)CC1` [Compound 10], the IC50 (commonly the midpoint of a concentration-inhibition curve) worked out at 2250 nM.

Consider `O=C(O)c1ccc(O)c2ncc(N3CCOCC3)cc12` [Compound 11], for which half-maximal inhibition (IC50) was put at 1740 nM.

The compound `O=C(O)c1ccc(O)c2ncc(C3CCNCC3)cc12` [Compound 12] yielded an IC50 of 1330 nM.

Turning to `NC1CCN(c2cnc3c(O)ccc(C(=O)O)c3c2)CC1` [Compound 13], the IC50 was determined as 1570 nM.

Consider `O=C(O)c1ccc(O)c2ncc(N3CCCC3)cc12` [Compound 14], for which 2240 nM corresponded to half-maximal inhibition (IC50).

The compound `O=C(O)c1ccc(O)c2ncc(NC3CCNC3)cc12` (stereo not shown) [Compound 15] showed an IC50 of 1760 nM.

Regarding `N[C@@H]1CCN(c2cnc3c(O)ccc(C(=O)O)c3c2)C1` [Compound 16], the IC50 is 1170 nM.

For `O=C(O)c1ccc(O)c2ncc(N3CC4CNCC4C3)cc12` (stereo not shown) [Compound 17], it took 1470 nM to reach half-maximal inhibition (IC50).

Turning to `NC(=O)c1cccc(-c2cnc3c(O)ccc(C(=O)O)c3c2)c1` [Compound 28], half-maximal inhibition (IC50) was put at 4900 nM.

The test is the same for the next values; noted with them: Table 2; JMJD2E; AlphaLISA, in triplicate; read-out: IC50.
Regarding `O=C(O)c1ccnc2c(O)cccc12` [Compound 2], the IC50 is 3070 nM.

On to `CN(C)CCCNC(=O)c1ccc(-c2cnc3c(O)cccc3c2)cc1` [Compound 3], for which the IC50 is 12000 nM.

On to `O=C(c1ccc(-c2cc(O)c3ncccc3c2)cc1)N1CCNCC1` [Compound 5], for which the IC50 is 1620 nM.

In the case of `CN1CCN(C(=O)c2cccc(-c3cc(O)c4ncccc4c3)c2)CC1` [Compound 6], the IC50 is 4270 nM.

In the case of `O=C(NCCCN1CCNCC1)c1cccc(-c2cc(O)c3ncccc3c2)c1` [Compound 7], the half-maximal inhibitory concentration (IC50) is 1240 nM.

Take `CN(C)CC1CCN(C2CCN(C(=O)c3cccc(-c4cc(O)c5ncccc5c4)c3)CC2)CC1` [Compound 8]: the IC50 turned out to be 990 nM.

Take `CN(C)CCCN1CCCN(C(=O)c2cccc(-c3cc(O)c4ncccc4c3)c2)C1` [Compound 9]: the IC50 was found to be 1520 nM.

Staying with this test, now noted: Table 3; JMJD2E; AlphaLISA, in triplicate; read-out: IC50.
In the case of `O=C(O)c1ccc(O)c2ncc(N3CCN(Cc4ccccc4)CC3)cc12` [Compound 18], the IC50 was found to be 4980 nM.

In the case of `O=C(O)c1ccc(O)c2ncc(-c3ccc(N4CCOCC4)cc3)cc12` [Compound 19], the IC50 came to 4180 nM.

In the case of `O=C(O)c1ccc(O)c2ncc(-c3cccc(N4CCOCC4)c3)cc12` [Compound 20], the half-maximal inhibitory concentration (IC50) was determined as 5110 nM.

Take `O=C(O)c1ccc(O)c2ncc(NCC3CCCN(CCc4ccccc4)C3)cc12` (stereo not shown) [Compound 21]: the IC50 was 2100 nM.

On to `O=C(O)c1ccc(O)c2ncc(N3CCCCC3CCc3ccccn3)cc12` (stereo not shown) [Compound 22], for which the IC50 came out at 4660 nM.

On to `O=C(O)c1ccc(O)c2ncc(-c3ccc(C(=O)N4CCNCC4)cc3)cc12` [Compound 23], for which the half-maximal inhibitory concentration (IC50) is 3610 nM.

As for `CN1CCN(C(=O)c2ccc(-c3cnc4c(O)ccc(C(=O)O)c4c3)cc2)CC1` [Compound 24], the IC50 turned out to be 4630 nM.

As to `CN(C)CCCNC(=O)c1ccc(-c2cnc3c(O)ccc(C(=O)O)c3c2)cc1` [Compound 25], the IC50 was found to be 1410 nM.

On to `O=C(O)c1ccc(O)c2ncc(N3CCCN(C4CCCC4)CC3)cc12` [Compound 26], for which the half-inhibitory concentration (IC50) was 2080 nM.

For `O=C(O)c1ccc(O)c2ncc(N3CCCN(CCCc4ccncc4)CC3)cc12` [Compound 27], the IC50 stood at 1710 nM.

The subject of a further test is HSV-1.
Assay: not given
To be noted: 2 mM DMOG, 2 mM TCP or ACV, 48 hours; FIG. 11. Type of test: cell-based, Balb/c mice. How it is done:
FIG. 18 is a dot plot showing latently infected ganglia that were explanted in the presence of DMSO, ACV (100 mM), or ML324 (50 mM) for 48 hrs. Viral yields were determined from one half of each ganglia at 48 hrs (DMSO, ACV, ML324) and from the other half of each ganglia after drug reversal for an additional 72 hrs (ACV-R, ML324-R) [Wilcoxon matched pairs signed rank test, ACV vs ACV-R n=8, ML324 vs ML324-R n=10]. Data are means±SEM.
FIG. 19 is a dot plot showing viral yields from HSV-1 latently infected trigeminal ganglia that were explanted in the presence of DMSO, or 2 mM DMOG or 50 mM ML324 for 48 hours (DMSO versus DMOG: P=0.0015, Wilcoxon matched-pairs signed rank test; n=12; DMSO versus ML324: P<0.0001; n=20). Data are means±SEM.
Viral yields decrease from HSV-1 latently infected ganglia explanted in the presence of LSD1 or JMJD2 inhibitors (FIG. 11). Balb/c mice were infected with 5×10^6 PFU HSV-1 (strain F) per eye after corneal scarification. Latently infected mice were sacrificed 45 days post clearance of the primary infection and trigeminal ganglia were rapidly explanted into culture in the presence of 2 mM DMOG, 2 mM TCP, or control (DMSO or ACV, acyclovir) for 48 hours. Post explant incubation, the ganglia were homogenized and briefly sonicated. The reactivated viral yield of each ganglia was determined by titering the clarified supernatant on Vero cells. Statistical comparisons were made using Wilcoxon signed rank test (paired ganglia) with a statistical significance of <0.05. Each data point was the result of a single ganglia divided and treated in the presence and absence of DMSO and DMOG or DMSO and TCP. Therefore, a Wilcoxon signed rank test was used to assess differences between each treated and untreated sample. The significant difference between DMSO control and DMOG was p=0.0018. This test used an exact p-value for small sample sizes with an a level of 0.05. n=20. Analyses were made using Prism (V5.0a) and are expressed as the mean+/−s.e.m.
With `N[C@@H]1C[C@H]1c1ccccc1` (racemic) [TCP, tranylcypromine], the “viral yield from explanted latently infected ganglia” value is “decreases”.

Take `Nc1nc2c(ncn2COCCO)c(=O)[nH]1` [ACV, acyclovir, reference compound]: the “viral yield from explanted latently infected ganglia” value is on record as “No viral yields”.

Another test deals with HSV-1. The test can be described thus: Plaque assay of Vero cells infected with HSV-1. In kind it is cell-based. Set-up: # Plaques: dose or concentration left out as unconfirmed. To be noted: MOI .001; 12 hours infection, then ACV or ML324 for 48 hours. How it is done:
ML324 was ˜75-fold more efficient than DMOG. Additionally, ML324 (i) reduced viral yields in a dose-dependent manner (˜5 logs at 50 mM, FIG. 14); (ii) blocked viral IE gene transcription and reduced viral yields when cells were infected at high multiplicity of infection (MOI; FIGS. 15 and 16); and (iii) suppressed IE gene transcription, even when added at times after infection (>50% reduction at 2 hours after infection; FIG. 17). As further evidence for the efficacy of ML324, cells were infected with HSV to allow for a productive cycle of infection, followed by treatment with DMSO, ACV, or ML324.
For the compound `Nc1nc2c(ncn2COCCO)c(=O)[nH]1` [ACV, acyclovir, reference compound], the “# Plaques” value came to 1.

Still in this test, the particulars now being: MOI .01; 12 hours infection, then ACV or ML324 for 48 hours.
`Nc1nc2c(ncn2COCCO)c(=O)[nH]1` [ACV, acyclovir, reference compound]: the “# Plaques” value is recorded as 8.
